In US9328122B2, “7-substituted Hanfangichin B derivative, and preparation method and use thereof” (HANGZHOU BENSHENG PHARMACEUTICAL CO., LTD., priority 2012, dated 2016):
Values after ≈ are worked out from the molar mass of the structure shown.

What was measured:
[1] = tested on: Jurkat (acute lymphoblastic leukemia) cells; experiment: MTT cell growth inhibition, leukemia cells; format: cell-based, human; details: Homo sapiens, Jurkat, 72 h, MTT; for IC50: read-out: IC50; for IC90: read-out: IC90
Summary of the method: (§1)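 MTT read-out of viable cells after 72 h compound exposure at 37° C., 5% CO2; 6000 cells/well in RPMI-1640 + 10% FBS, dosed one day after seeding over a range of concentrations.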

[2] = tested on: Kasumi-1 (acute myeloid leukemia M2 type) cells; experiment: MTT cell growth inhibition, leukemia cells; format: cell-based, human; details: Homo sapiens, Kasumi-1, 72 h, MTT; for IC50: read-out: IC50; for IC90: read-out: IC90
Summary of the method: as §1

[3] = tested on: H9 (acute lymphoblastic leukemia) cells; experiment: MTT cell growth inhibition, leukemia cells; format: cell-based, human; details: Homo sapiens, H9, 72 h, MTT; for IC50: read-out: IC50; for IC90: read-out: IC90
Summary of the method: as §1

[4] = tested on: RPMI 8226 (multiple myeloma) cells; experiment: MTT cell growth inhibition, multiple myeloma cells; format: cell-based, human; details: for IC50 / IC90: Homo sapiens, RPMI 8226, 72 h, MTT; for IC50: read-out: IC50; for IC90: read-out: IC90
Summary of the method: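 RPMI 8226 myeloma cells, 6000 per well in RPMI-1640 with 10% FBS, were dosed with fangchinoline derivatives at several concentrations the day after seeding. Incubation ran 72 h at 37° C in 5% CO2, then viable cells were measured by MTT.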

[5] = tested on: MG-63 (osteosarcoma) cells; experiment: MTT cell growth inhibition, solid tumor cells; format: cell-based; details: Homo sapiens, MG-63, 72 h, MTT; for IC50: read-out: IC50; for IC90: read-out: IC90
Summary of the method: (§2)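 Human tumor cells seeded at 6000 per well grow 24 h in serum-supplemented (10% FBS) high-glucose DMEM. A 72 h incubation with graded compound doses at 37 °C follows, and MTT reports viable cell number.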

[6] = tested on: Hela (human cervical cancer) cells; experiment: MTT cell growth inhibition, solid tumor cells; format: cell-based; details: Homo sapiens, Hela, 72 h, MTT; for IC50: read-out: IC50; for IC90: read-out: IC90
Summary of the method: as §2

[7] = tested on: MGC-803 (human gastric cancer) cells; experiment: MTT cell growth inhibition, solid tumor cells; format: cell-based; details: MGC-803, 72 h, MTT; for IC50: read-out: IC50; for IC90: read-out: IC90
Summary of the method: as §2

[8] = tested on: RKO (human colon adenocarcinoma) cells; experiment: MTT cell growth inhibition, solid tumor cells; format: cell-based; details: Homo sapiens, RKO, 72 h, MTT; for IC50: read-out: IC50; for IC90: read-out: IC90
Summary of the method: as §2

[9] = tested on: Becap-37 (human breast cancer) cells; experiment: MTT cell growth inhibition, solid tumor cells; format: cell-based; details: for IC50 / IC90: Homo sapiens, Becap-37, 72 h, MTT; for IC50: read-out: IC50; for IC90: read-out: IC90
Summary of the method: as §2

[10] = tested on: Hep G2 (human liver cancer) cells; experiment: MTT cell growth inhibition, solid tumor cells; format: cell-based; details: for IC50 / IC90: Homo sapiens, HepG2, Hep G2, 72 h, MTT; for IC50: read-out: IC50; for IC90: read-out: IC90
Summary of the method: as §2

[11] = tested on: CaEs-17 (esophageal cancer) cells; experiment: MTT cell growth inhibition, solid tumor cells; format: cell-based, human; details: Homo sapiens, CaEs17, CaEs-17, 72 h, MTT; for IC50: read-out: IC50; for IC90: read-out: IC90
Summary of the method: as §2

[12] = tested on: CNE (nasopharyngeal carcinoma) cells; experiment: MTT cell growth inhibition, solid tumor cells; format: cell-based, human; details: for IC50 / IC90: Homo sapiens, CNE, 72 h, MTT; for IC50: read-out: IC50; for IC90: read-out: IC90
Summary of the method: as §2

[13] = tested on: SK-OV-3 (ovarian cancer) cells; experiment: MTT cell growth inhibition, solid tumor cells; format: cell-based, human; details: Homo sapiens, SK-OV-3, 72 h, MTT; for IC50: read-out: IC50; for IC90: read-out: IC90
Summary of the method: as §2

[14] = tested on: PANC-1 (pancreatic cancer) cells; experiment: MTT cell growth inhibition, solid tumor cells; format: cell-based, human; details: for IC50 / IC90: Homo sapiens, PANC-1, 72 h, MTT; for IC50: read-out: IC50; for IC90: read-out: IC90
Summary of the method: as §2

[15] = tested on: PC-3 (prostate cancer) cells; experiment: MTT cell growth inhibition, solid tumor cells; format: cell-based, human; details: Homo sapiens, PC-3, 72 h, MTT; for IC50: read-out: IC50; for IC90: read-out: IC90
Summary of the method: as §2

[16] = tested on: K562/ADR (K562adr, drug-resistant chronic myeloid leukemia) cells; experiment: MTT cell growth inhibition, leukemia cells; format: cell-based; details: Homo sapiens, K562/ADR, 72 h, MTT; for IC50: read-out: IC50; for IC90: read-out: IC90
Summary of the method: as §1

[17] = tested on: NB4 (acute promyelocytic leukemia) cells; experiment: MTT cell growth inhibition, leukemia cells; format: cell-based; details: Homo sapiens, NB4, 72 h, MTT; for IC50: read-out: IC50; for IC90: read-out: IC90
Summary of the method: as §1

tumor = experiment: Antitumor activity compared with fangchinoline, overall statement; format: cell-based; details: tumor type not specified
[18] = relative to fangchinoline, Table 2

IC50 [1] [µg/mL] | IC90 [1] [µg/mL] | IC50 [2] [µg/mL] | IC90 [2] [µg/mL] | IC50 [3] [µg/mL] | IC90 [3] [µg/mL] | IC50 [4] [µg/mL] | IC90 [4] [µg/mL] | IC50 [5] [µg/mL] | IC90 [5] [µg/mL] | IC50 [6] [µg/mL] | IC90 [6] [µg/mL] | IC50 [7] [µg/mL] | IC90 [7] [µg/mL] | IC50 [8] [µg/mL] | IC90 [8] [µg/mL] | IC50 [9] [µg/mL] | IC90 [9] [µg/mL] | IC50 [10] [µg/mL] | IC90 [10] [µg/mL] | SMILES | also measured
0.64 (≈ 0.838 µM) | 1.61 (≈ 2.11 µM) | 0.84 (≈ 1.1 µM) | 1.86 (≈ 2.43 µM) | 1.13 (≈ 1.48 µM) | 2 (≈ 2.62 µM) | < 0.125 | 0.25 (≈ 0.327 µM) | 1.1 (≈ 1.44 µM) | 1.7 (≈ 2.23 µM) | 1.33 (≈ 1.74 µM) | 2.41 (≈ 3.15 µM) | 0.49 (≈ 0.641 µM) | 3.21 (≈ 4.2 µM) | 0.44 (≈ 0.576 µM) | 0.95 (≈ 1.24 µM) | 0.73 (≈ 0.956 µM) | 2.48 (≈ 3.25 µM) | 0.66 (≈ 0.864 µM) | 1.51 (≈ 1.98 µM) | COc1ccc2cc1Oc1ccc(cc1)C[C@H]1c3cc(c(OC)cc3CCN1C)Oc1c(OCC(O)CN3CCCC(C)C3)c(OC)cc3c1[C@H](C2)N(C)CC3 (some centres unmarked) [BS-FC-410] | anti-Becap37 activity increase over fangchinoline [9, 18]: ~3 fold; anti-Hep G2 activity increase over fangchinoline [10, 18]: ~3 fold; IC50 [11]: 0.76 µg/mL (≈ 0.995 µM); IC90 [11]: 4.3 µg/mL (≈ 5.63 µM); IC50 [12]: 1.1 µg/mL (≈ 1.44 µM); IC90 [12]: 2.4 µg/mL (≈ 3.14 µM); IC50 [13]: 1.39 µg/mL (≈ 1.82 µM); IC90 [13]: 5.59 µg/mL (≈ 7.32 µM); IC50 [14]: 1.11 µg/mL (≈ 1.45 µM); IC90 [14]: 3.77 µg/mL (≈ 4.93 µM); anti-PANC-1 activity increase over fangchinoline [14, 18]: ~3 fold; IC50 [15]: 2.85 µg/mL (≈ 3.73 µM); IC90 [15]: 3.89 µg/mL (≈ 5.09 µM); IC50 [16]: 0.05 µg/mL (≈ 0.0654 µM); IC90 [16]: 0.63 µg/mL (≈ 0.825 µM); IC50 [17]: 0.28 µg/mL (≈ 0.367 µM); IC90 [17]: 0.91 µg/mL (≈ 1.19 µM); antitumor activity compared with that of fangchinoline (tumor): significantly superior
1.24 (≈ 1.61 µM) | 5.47 (≈ 7.12 µM) | 1.45 (≈ 1.89 µM) | 3.63 (≈ 4.73 µM) | 1.3 (≈ 1.69 µM) | 3.6 (≈ 4.69 µM) | 0.02 (≈ 0.026 µM) | 0.5 (≈ 0.651 µM) | 2 (≈ 2.6 µM) | 3.6 (≈ 4.69 µM) | 1.73 (≈ 2.25 µM) | 4.47 (≈ 5.82 µM) | 1.49 (≈ 1.94 µM) | 12.9 (≈ 16.8 µM) | 1.09 (≈ 1.42 µM) | 2.27 (≈ 2.96 µM) | 2.42 (≈ 3.15 µM) | 6.16 (≈ 8.02 µM) | 1.8 (≈ 2.34 µM) | 5.79 (≈ 7.54 µM) | COc1ccc2cc1Oc1ccc(cc1)C[C@H]1c3cc(c(OC)cc3CCN1C)Oc1c(OCC(O)CN3CCSCC3)c(OC)cc3c1[C@H](C2)N(C)CC3 (some centres unmarked) [BS-FC-417] | anti-RPMI8226 activity increase over fangchinoline [4, 18]: 2 fold; IC50 [11]: 1.82 µg/mL (≈ 2.37 µM); IC90 [11]: 7.67 µg/mL (≈ 9.99 µM); IC50 [12]: 1.66 µg/mL (≈ 2.16 µM); IC90 [12]: 5.24 µg/mL (≈ 6.82 µM); IC50 [13]: 4.6 µg/mL (≈ 5.99 µM); IC90 [13]: 12.9 µg/mL (≈ 16.8 µM); IC50 [14]: 5.55 µg/mL (≈ 7.23 µM); IC90 [14]: 9 µg/mL (≈ 11.7 µM); IC50 [15]: 3.68 µg/mL (≈ 4.79 µM); IC90 [15]: 9.36 µg/mL (≈ 12.2 µM); IC50 [16]: 0.19 µg/mL (≈ 0.247 µM); IC90 [16]: 2.15 µg/mL (≈ 2.8 µM); IC50 [17]: 0.99 µg/mL (≈ 1.29 µM); IC90 [17]: 2.86 µg/mL (≈ 3.72 µM); antitumor activity compared with that of fangchinoline (tumor): significantly superior
0.97 (≈ 1.25 µM) | 3.79 (≈ 4.88 µM) | 0.95 (≈ 1.22 µM) | 2.55 (≈ 3.29 µM) | 1 (≈ 1.29 µM) | 2.8 (≈ 3.61 µM) | < 0.125 | 0.25 (≈ 0.322 µM) | 1.6 (≈ 2.06 µM) | 2.4 (≈ 3.09 µM) | 0.88 (≈ 1.13 µM) | 2.78 (≈ 3.58 µM) | 0.84 (≈ 1.08 µM) | 4.44 (≈ 5.72 µM) | 0.61 (≈ 0.786 µM) | 2.33 (≈ 3 µM) | 1.15 (≈ 1.48 µM) | 3.96 (≈ 5.1 µM) | 1.16 (≈ 1.49 µM) | 3.25 (≈ 4.19 µM) | COc1ccc2cc1Oc1ccc(cc1)C[C@H]1c3cc(c(OC)cc3CCN1C)Oc1c(OCC(O)CN3CCN(C#N)CC3)c(OC)cc3c1[C@H](C2)N(C)CC3 (some centres unmarked) [BS-FC-421] | IC50 [11]: 0.88 µg/mL (≈ 1.13 µM); IC90 [11]: 9.43 µg/mL (≈ 12.2 µM); IC50 [12]: 0.87 µg/mL (≈ 1.12 µM); IC90 [12]: 3.87 µg/mL (≈ 4.99 µM); anti-CNE activity increase over fangchinoline [12, 18]: ~3 fold; IC50 [13]: 2.36 µg/mL (≈ 3.04 µM); IC90 [13]: 11 µg/mL (≈ 14.2 µM); IC50 [14]: 2.96 µg/mL (≈ 3.81 µM); IC90 [14]: 7.01 µg/mL (≈ 9.03 µM); IC50 [15]: 2.72 µg/mL (≈ 3.51 µM); IC90 [15]: 6.07 µg/mL (≈ 7.82 µM); IC50 [16]: 0.21 µg/mL (≈ 0.271 µM); IC90 [16]: 1.43 µg/mL (≈ 1.84 µM); IC50 [17]: 0.61 µg/mL (≈ 0.786 µM); IC90 [17]: 1.61 µg/mL (≈ 2.07 µM); antitumor activity compared with that of fangchinoline (tumor): significantly superior
